# Literature values as cited in patent publication US20260325503A1, “LONG-ACTING FORMULATIONS” (JANSSEN PHARMACEUTICA NV, priority 2022, published 2026).
# Assays:
# [1] = test system: mycobacterial ATP synthase; details: mycobacterial ATP synthase versus eukaryotic mitochondrial ATP synthase
smiles,measurement,setting,value
COc1nc2ccc(Br)cc2cc1[C@@H](c1ccccc1)[C@@](O)(CCN(C)C)c1cccc2ccccc12 [bedaquiline],selectivity index,[1],more than 20000
same,minimal dose killing 99% of bacilli,M. tuberculosis,30 mg/kg/wk
same,minimal dose killing 99% of bacilli,Mycobacterium leprae; M. lepra,< 5.0 mg/kg/wk
same,Bactericidal activity (in words),"Mycobacterium leprae; mycobacterium leprae, mice",bactericidal
